We go through five molecules from paper PMC10223822, “Identification of the Hepatic Metabolites of Flumazenil and their Kinetic Application in Neuroimaging” (Pharmaceuticals, 2023).

Series [1] is described as follows: Flumazenil biotransformation in rat liver homogenate (HPLC-DAD/tandem MS). It counts as in vitro ADME. The protocol:
(§1) The quantification of flumazenil metabolism by hepatic enzymes was performed using HPLC (Agilent 1100 series, Palo Alto, CA, USA), which is comprised of an online degasser, a binary pump, an auto sampler, a thermostat column oven (maintained at 25 °C), and a diode array detector (DAD, 250 nm). Data were acquired and processed using the Agilent ChemStation software (ed. 10.02). Separation was achieved using a C18 column with a guard column and an ammonium acetate buffer–acetonitrile gradient elution. The mobile phase consisted of eluents A (5 mM ammonium acetate aqueous buffer with 1% ACN, pH 7.0) and B (ACN only) at a flow rate of 0.6 mL min^−1. These were mixed to separate the metabolites and flumazenil from the sample matrices, according to the gradient program shown in Table 1. The overall LC time for flumazenil biotransformation was 15 min. An analyte solution of 5 µL was injected using an auto-sampler thermostat at 4 °C.
(§2) Mass spectrometric analysis of flumazenil in ACN was initially conducted on a 4000 QTrap LC-MS/MS system using API Analyst software 1.4.1 (AB Sciex, Concord, ON, Canada) to obtain the appropriate MS parameters and m/z for flumazenil fragments. Samples were introduced into the spectrometer, either by the HPLC system (Agilent 1100) or by a syringe pump, at a flow rate of 10 µL min^−1 (Harvard Apparatus Inc., Holliston, MA, USA). Chromatographic separation was conducted as described in the HPLC conditions section. The analytes were ionized by a turbo spray ion source (electrospray ionization, [ESI]) in the positive-ion mode at 5000 V and 350 °C. Mass spectra were recorded within a range of 100–1000 amu with unit resolutions of Q1 and Q3. The LC-tandem MS determination of flumazenil concentration was conducted in the multiple reaction monitoring positive-ion mode with transition ion pairs 304 → 258 and 304 → 276. Vaporized liquid nitrogen gas was used as the nebulizer, curtain, and collision gas in all 4000 QTrap LC–MS/MS studies.
Normal rat livers were obtained from healthy male SD rats weighing 400–450 g. […]

Series [2] can be described thus: Flumazenil metabolization in rat liver microsomes (LC-DAD/tandem MS). It counts as in vitro ADME. The method, then: as §1
as §2, with “Vaporized liquid nitrogen gas was used as the nebulizer, curtain, and collision gas in all 4000 QTrap LC–MS/MS studies.” left out
Incubation solutions were prepared according to the manufacturer’s instructions. […] The supernatants were filtered through a 0.22 µm PVDF disk filter and analyzed using LC-DAD and tandem MS. […]
Background: Liver microsomes are a subcellular fraction often used to study metabolism.

Series [3] is described as follows: Radiochemical stability of [18F]flumazenil in 30% ethanol after end of synthesis. The series is classed as physicochemical. The note with it: amber glass vial, room temperature, 8 h after end of synthesis (EOS).
Series [4] is described as follows: In vitro serum stability of [18F]flumazenil (radio-TLC). The note with it: for Radiochemical Purity (RCP, %) in serum: rat serum, 37 °C.
Method: Serum preparation: healthy SD rats were deeply anesthetized with isoflurane gas (3% isoflurane in 50% oxygen, 1 mL/min). One milliliter of whole blood from healthy SD rats was withdrawn through the tail vein at room temperature and centrifuged at 3000 rpm for 10 min to obtain the prepared serum for stability testing.

`COC(=O)c1ncn2c1CN(C)C(=O)c1cc(F)ccc1-2` [Metabolite M1]: the M1 formation entry in series [1] (flumazenil incubated in rat liver homogenate 0–250 min) is on record as “relatively low amount”.

For `CN1Cc2c(C(=O)O)ncn2-c2ccc(F)cc2C1=O` [Metabolite M2], the “peak area of M2 increased by” value in series [2] (up to 120 min incubation) is recorded as 72%.

Turning to `CN1Cc2c(C(=O)OCCO)ncn2-c2ccc(F)cc2C1=O` [Metabolite M3], the “change of peak area of M3” value in series [2] (up to 120 min incubation) is “No significant increase”.

Regarding `CCOC(=O)c1ncn2c1CN(C)C(=O)c1cc([18F])ccc1-2` [[^18F]flumazenil], the “radiochemical purity in 30% ethanol” value in series [3] was over 90%. Besides, the “biotransformed metabolites in metabolism analysis” value in series [1] (after 30 min, as worded in conclusions) is reported as “about 50%”. In addition, the “Radiochemical Purity (RCP, %) in serum” value in series [4] (0 min) was 95.76%; in series [4] (5 min) it was 93.28%; in series [4] (10 min), 91.07%; in series [4] (30 min), 87.46%; in series [4] (60 min), 85.68%; in series [4] (120 min), 79.95%. In addition, in series [4] (240 min), the “Radiochemical Purity (RCP, %) in serum” value is 72.13%. The “intact [18F]flumazenil in serum” value in series [4] (up to 1 h of incubation, regular conditions) is over 85%.

On to `CCOC(=O)c1ncn2c1CN(C)C(=O)c1cc(F)ccc1-2` [flumazenil, ethyl 8-fluoro-5-methyl-6-oxo-5,6-dihydro-4H-benzo[f]imidazo [1,5-a] [1, 4]diazepine-3-carboxylate], for which the “parent drug biotransformed (parent peak area)” value in series [1] (rat liver homogenate, 37 °C, 4 h (240 min)) is on record as “approximately 65%”. The “flumazenil detected, of the initial amount” value in series [2] (120 min incubation) is “approximately 22%”.
